Assay [1] concerns the target T1, mitochondrial calcium uniporter (Homo sapiens, UniProt Q8NE86).
T1 sequence (Q8NE86 51-351): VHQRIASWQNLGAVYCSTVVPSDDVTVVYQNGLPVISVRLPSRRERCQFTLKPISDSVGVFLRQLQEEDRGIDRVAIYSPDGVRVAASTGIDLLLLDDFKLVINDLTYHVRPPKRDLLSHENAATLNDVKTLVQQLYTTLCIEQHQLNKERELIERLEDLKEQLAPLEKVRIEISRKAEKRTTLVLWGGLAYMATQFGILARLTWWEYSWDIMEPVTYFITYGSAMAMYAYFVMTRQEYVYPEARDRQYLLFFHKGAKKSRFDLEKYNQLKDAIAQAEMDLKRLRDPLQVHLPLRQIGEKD
T1 sequence (Q9H4I9 48-107 partner limits assumed): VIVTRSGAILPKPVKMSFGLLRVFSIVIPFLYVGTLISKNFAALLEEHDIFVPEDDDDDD
In words: Ca2+ uptake of isolated mitochondria from HEK293A cells (aequorin luminescence). On the set-up: isolated mitochondria from HEK293A cells were used; endogenous in cells; host or cells: mitochondria isolated from HEK293A cells stably expressing mitochondria-targeted aequorin. Particulars: 100 μM Ca2+, 5 min preincubation; read-out: IC50, inhibition of Ca2+ uptake of isolated mitochondria from HEK293A cells. Type of assay: biochemical. Here is the method:
Mitochondrial Ca^2+ uptake activity is regulated by cytosolic protein kinase signaling,[19] raising the possibility that HTS hits contained indirect inhibitors of the uniporter, such as inhibitors of cytosolic signaling. To examine the direct inhibitory effect of the compounds on the mitochondrial Ca^2+ uptake, isolated mitochondria from HEK293A cells were used. Ca^2+ uptake of the isolated mitochondria was observed as a rapid increase in the luminescence level after application of 100 μM Ca^2+ (Figure 2a).
Figure 2 DS16570511 inhibits Ca^2+ uptake in isolated mitochondria from HEK293A cells. (a) Representative raw data of Ca^2+ uptake in isolated mitochondria. (b) Effect of DS16570511 or Ru360 on mitochondrial Ca^2+ uptake. The area under the curve of temporal aequorin activities is used for calculation of inhibitory activities. Inhibition 0 or 100% is defined as a value of […], respectively. Data are mean with S.E.M. from three independent samples.
To monitor Ca^2+ uptake activity of isolated mitochondria, mitochondria were prepared from the cells (1×10^8 cells) stably expressing mitochondria-targeted aequorin by using a mitochondria isolation kit. […] The luminescence levels were detected as described above.

Assay [2] relates to Ca2+ uptake of pig heart mitochondria. In words: Ca2+ uptake assay using isolated pig heart mitochondria (atomic absorbance spectrometer). Type of assay: biochemical. The conditions noted are these: 100 μM CaCl2; read-out: IC50, inhibition of Ca2+ uptake of pig heart mitochondria. Here is the method: We then asked whether DS16570511 inhibits Ca^2+ uptake in isolated mitochondria from animal heart. An atomic absorbance spectrometer-based detection method was employed to analyze intramitochondrial Ca^2+ levels. We prepared freshly isolated mitochondria from pig heart, and the mitochondria were incubated with 100 μM CaCl2.
(a) Effect of RuR on Ca^2+ uptake of pig heart mitochondria. […] Data are mean with S.E.M. from three independent samples. (b) Inhibition rate of RuR or DS16570511 on Ca^2+ uptake of pig heart mitochondria. Inhibition 0 or 100% is defined as a value of Ca^2+-untreated mitochondria or Ca^2+-treated mitochondria, respectively. Data are mean with S.E.M. from three independent samples. (c) Inhibition rate of RuR or DS16570511 on Ca^2+ uptake of rat heart mitochondria. Data are mean with S.E.M./variation from three or two independent samples for DS16570511 or RuR, respectively.
Mitochondria were isolated by using the mitochondria isolation kit and then dissolved in the swelling buffer. The protein concentration of the mitochondrial solution was 5 mg/ml. Thirty minutes after application of CaCl2 (final concentration of 100 μM) to the solution, the mitochondria were collected by centrifugation (3000 g) at 4 °C. The pellets were resuspended in the swelling buffer containing 1 μM RuR. After collection of the mitochondria by centrifugation (3000 g), the pellets were dried and dissolved by 40 μl of sulfuric acid at 95 °C.

For assay [3], the system named is serum-induced cytosolic Ca2+ increase in HEK293A cells. In words: Counter assay: serum-induced cytosolic Ca2+ increase in HEK293A cells expressing aequorin in cytosol. In kind it is cell-based, human. Particulars: read-out: concentration used to decrease the serum-induced cytosolic Ca2+ increase by 50%. Here is the method: In the first screening using the cell-based assay, application of 10% fetal bovine serum to the cells triggered a rapid increase of mitochondrial Ca^2+ level (Figure 1a). Pretreatment of the cells with DS16570511 inhibited the serum-induced mitochondrial Ca^2+ influx with an IC50 of 7 μM (Figures 1a and b). In order to eliminate broad channel inhibitors or chemicals affecting the aequorin-based detection system, a counter assay was carried out using HEK293A cells expressing aequorin in cytosol. In the assay, the concentration of DS16570511 used to decrease the serum-induced cytosolic Ca^2+ increase by 50% was ~50 μM.
For dynamic measurements of mitochondrial Ca^2+ levels in intact cells, HEK293A cells were stably transfected with pIRES-puro vector expressing mitochondria-targeted aequorin.[20] One day after plating on a 15-cm dish (8×10^6 cells/dish), the cells were harvested and incubated with 2.5 μM coelenterazine h in aequorin assay buffer (200 mM Hanks Balanced Salt Solution, 25 mM HEPES (pH 7.0) and 0.1% bovine serum albumin) for 2 h at room temperature. The cells (8.1×10^4 cells/well) were then treated with DS16570511 for 20 min in a 96-well plate at room temperature. For induction of intracellular Ca^2+, the cells were treated with 10% fetal bovine serum, and luminescence levels were measured by using a Centro LB960 luminometer (Berthold Technologies, Oak Ridge, TN, USA).

This is an account of results in paper PMC5511861, “DS16570511 is a small-molecule inhibitor of the mitochondrial calcium uniporter” (Cell Death Discovery, 2017).

pIC50: −log10 of the molar value.

In the case of `Cc1onc(-c2c(Cl)cccc2Cl)c1CNc1cccc(C(=O)c2cn(CCCC(=O)O)c3ccccc23)c1` [DS16570511], the pIC50 in assay [1] was 6.07; in assay [2], 4.82; in assay [3], about 4.30.
